≈ marks a conversion by molar mass, not a printed value. {(KFF)3K-eg1} = H-(KFF)3K peptide (K lysine, F phenylalanine) with eg1 linker (8-amino-3,6-dioxaoctanoyl), on the PNA N terminus (5' end); {(kff)3k-eg1} = D-form (kff)3k peptide with eg1 linker (8-amino-3,6-dioxaoctanoyl), on the PNA N terminus; {(R-Ahx-R)4-Ahx} = H-(R-Ahx-R)4-Ahx peptide (R arginine, Ahx 6-aminohexanoyl), on the PNA N terminus; {NH2} = C-terminal amide
Columns and labels:
Type in all cases: cell-based, Acinetobacter baumannii
[1] = tested on: CRAB strain AC1; experiment: Antibiotic MIC (CLSI microdilution or gradient strips); details: Acinetobacter baumannii, AC1, wound isolate
Protocol: (§1) All minimum inhibitory concentration (MIC) determinations for antibiotics were performed by the standard microdilution method in 96-well microplate (Thermo-Scientific, Roskilde, Denmark) or by gradient test strips (Liofilchem, Italy) according to the Clinical and Laboratory Standards Institute guidelines. Escherichia coli ATCC 25922 was used as control.

[2] = tested on: CRAB strain AC9; experiment: as above; details: Acinetobacter baumannii, AC9; CSF isolate; CLSI; read-out: MIC, AC9
Protocol: as §1

[3] = tested on: CRAB strain AC8; experiment: as above; details: Acinetobacter baumannii, AC8; sputum isolate; CLSI; read-out: MIC, AC8
Protocol: as §1

[4] = tested on: CRAB strain AC4; experiment: as above; details: Acinetobacter baumannii, AC4; trachea isolate; CLSI; read-out: MIC, AC4
Protocol: as §1

[5] = tested on: CRAB strain AC44; experiment: as above; details: Acinetobacter baumannii, AC44, urine isolate
Protocol: as §1

[6] = tested on: CRAB strain AC5; experiment: as above; details: Acinetobacter baumannii, AC5, urine isolate
Protocol: as §1

[7] = tested on: A. baumannii ATCC 19606 type strain; experiment: as above; details: Acinetobacter baumannii, ATCC19606
Protocol: as §1

[8] = tested on: CRAB strain AC46; experiment: as above; details: Acinetobacter baumannii, AC46; sputum isolate; CLSI; read-out: MIC, AC46
Protocol: as §1

[9] = tested on: CRAB strain AC2; experiment: as above; details: Acinetobacter baumannii, AC2; wound isolate; CLSI; read-out: MIC, AC2
Protocol: as §1

[10] = tested on: CRAB strain AC3; experiment: as above; details: Acinetobacter baumannii, AC3, sputum isolate
Protocol: as §1

[11] = tested on: CRAB strain AC6; experiment: as above; details: Acinetobacter baumannii, AC6; blood isolate; CLSI; read-out: MIC, AC6
Protocol: (§2) All minimum inhibitory concentration (MIC) determinations for antibiotics were performed by the standard microdilution method in 96-well microplate (Thermo-Scientific, Roskilde, Denmark) or by gradient test strips (Liofilchem, Italy) according to the Clinical and Laboratory Standards Institute guidelines.

[12] = tested on: CRAB strain AC7; experiment: as above; details: Acinetobacter baumannii, AC7; blood isolate; CLSI; read-out: MIC, AC7
Protocol: as §2

[13] = tested on: A. baumannii SSI1104; experiment: BPP-PNA MIC, broth microdilution
Protocol: (§3) MIC values were determined by broth microdilution according to standard protocols with a few modifications. […] Then, 180 µL bacterial solutions were dispensed into a low-bind 96-well plate (Thermo-Scientific, Roskilde, Denmark) along with 20 µL of BPP-PNA compound (BPP-PNA was serially diluted 2-fold from 16 to 0.5 µM in a 96-well plate). The plate was incubated in a Tecan Genios plate reader (GMI, Minnesota, Ramsey, USA) at 37 °C for 18 h with linear shaking, OD was measured every 20 min at 595 nm. […] The minimum bactericidal concentration (MBC) values were determined by plating 10 µL samples from the wells with no visible turbidity onto Mueller–Hinton agar plates. The MBC is determined the lowest concentration of BPP-PNA that reduces the viability of the initial bacterial inoculum by ≥99.9% (3-log reduction in CFU/mL). A minimum of two independent experiments (biological replicates) of the assay were conducted, and two technical replicates were used in each experiment for each bacterium, compound, and concentration.

[14] = tested on: CRAB strain AC46; experiment: BPP-PNA MIC, broth microdilution
Protocol: as §3

[15] = tested on: CRAB strain AC44; experiment: BPP-PNA MIC, broth microdilution
Protocol: (§4) MIC values were determined by broth microdilution according to standard protocols with a few modifications. An overnight bacterial cell culture was diluted to approximately 5 × 10^5 CFU/mL in non-cation-adjusted Muller Hinton Broth (MHB). Then, 180 µL bacterial solutions were dispensed into a low-bind 96-well plate (Thermo-Scientific, Roskilde, Denmark) along with 20 µL of BPP-PNA compound (BPP-PNA was serially diluted 2-fold from 16 to 0.5 µM in a 96-well plate). The plate was incubated in a Tecan Genios plate reader (GMI, Minnesota, Ramsey, USA) at 37 °C for 18 h with linear shaking, OD was measured every 20 min at 595 nm. […] The minimum bactericidal concentration (MBC) values were determined by plating 10 µL samples from the wells with no visible turbidity onto Mueller–Hinton agar plates. The MBC is determined the lowest concentration of BPP-PNA that reduces the viability of the initial bacterial inoculum by ≥99.9% (3-log reduction in CFU/mL). A minimum of two independent experiments (biological replicates) of the assay were conducted, and two technical replicates were used in each experiment for each bacterium, compound, and concentration.

[16] = tested on: A. baumannii ATCC 19606; experiment: BPP-PNA MIC, broth microdilution; details: 37 °C, 18 h
Protocol: as §4

[17] = tested on: CRAB strain AC2; experiment: BPP-PNA MIC, broth microdilution
Protocol: as §4

[18] = Table 4 (anti-rne), brand of medium not given, non-cation-adjusted MHB by method
[19] = Sigma MHB medium without cation, 37 °C, 18 h
[20] = Sigma MHB medium without cation, ~5 × 10^5 CFU/mL, OD595 < 0.1
[21] = MHB without cation (Oxoid), 37 °C, 18 h

Molecule: C[C@@H](O)[C@H]1C(=O)N2C(C(=O)O)=C(SCCN=CN)C[C@H]12 [Imipenem]
- MIC [1]: 8 µg/mL (≈ 26.7 µM)
- MIC [2]: 16 µg/mL (≈ 53.4 µM)
- MIC [3]: 16 µg/mL (≈ 53.4 µM)
- MIC [4]: 8 µg/mL (≈ 26.7 µM)
- MIC [5]: 16 µg/mL (≈ 53.4 µM)
- MIC [6]: 16 µg/mL (≈ 53.4 µM)
- MIC [7]: 1 µg/mL (≈ 3.34 µM)
- MIC [8]: 16 µg/mL (≈ 53.4 µM)
- MIC [9]: 16 µg/mL (≈ 53.4 µM)
- MIC [10]: 32 µg/mL (≈ 107 µM)
- MIC [11]: 16 µg/mL (≈ 53.4 µM)
- MIC [12]: 16 µg/mL (≈ 53.4 µM)

Molecule: CN(C)[C@@H]1C(O)=C(C(N)=O)C(=O)[C@@]2(O)C(O)=C3C(=O)c4c(O)cccc4[C@@](C)(O)[C@H]3C[C@@H]12 [Tetracycline]
- MIC [2]: 32 µg/mL (≈ 72 µM)
- MIC [3]: 32 µg/mL (≈ 72 µM)
- MIC [5]: 256 µg/mL (≈ 576 µM)
- MIC [7]: 1 µg/mL (≈ 2.25 µM)
- MIC [8]: 128 µg/mL (≈ 288 µM)

Molecule: H-(KFF)3K-eg1- TTTGATGTGTG -NH2 (all peptide nucleic acid (PNA), 5' {(KFF)3K-eg1}, 3' {NH2}) [PNA 5822, anti-rne mismatch control of 5656]
- MIC, SSI 1104 [13, 18]: 8 µM
- MIC, AC46 [14, 18]: 8 µM
- MIC, AC44 [15, 18]: 8 µM
- MIC, ATCC 19606 [16, 18]: 8 µM
- MIC, AC2 [17, 18]: 8 µM

Molecule: H-(KFF)3K-eg1-ACGATTCTTGG-NH2 (all peptide nucleic acid (PNA), 5' {(KFF)3K-eg1}, 3' {NH2}) [PNA 5638, anti-rne mismatch control of 5637]
- MIC, AC46 [14, 18]: 1 µM
- MIC, AC44 [15, 18]: 2 µM
- MIC, ATCC 19606 [16, 18]: 2 µM

Molecule: H-(KFF)3K-eg1-ACGTTTCATGG-NH2 (all peptide nucleic acid (PNA), 5' {(KFF)3K-eg1}, 3' {NH2}) [PNA 5637, anti-rne peptide-PNA conjugate, match, −2 to +9]
- MIC, AC46 [14, 18]: 1 µM
- MIC, AC44 [15, 18]: 1 µM
- MIC, ATCC 19606 [16, 18]: 1 µM

Molecule: H-(KFF)3K-eg1-ATACCGCTTAC-NH2 (all peptide nucleic acid (PNA), 5' {(KFF)3K-eg1}, 3' {NH2}) [PNA 5653, anti-acpP mismatch control of 5652]
- MIC, SSI 1104 [13, 19]: 4 µM
- MIC, AC46 [14, 19]: 4 µM
- MIC, AC44 [15, 19]: 4 µM
- MIC, ATCC 19606 [16, 20]: 4 µM
- MIC, AC2 [17, 19]: 4 µM

Molecule: H-(KFF)3K-eg1-ATACGTTTCAT-NH2 (all peptide nucleic acid (PNA), 5' {(KFF)3K-eg1}, 3' {NH2}) [PNA 5654, anti-rne peptide-PNA conjugate, match, +1 to +11]
- MIC, SSI 1104 [13, 18]: 2 µM
- MIC, AC46 [14, 18]: 2 µM
- MIC, AC44 [15, 18]: 1 µM
- MIC, ATCC 19606 [16, 18]: 2 µM
- MIC, AC2 [17, 18]: 2 µM

Molecule: H-(KFF)3K-eg1-ATCCGTTTAAT-NH2 (all peptide nucleic acid (PNA), 5' {(KFF)3K-eg1}, 3' {NH2}) [PNA 5821, anti-rne mismatch control of 5654]
- MIC, SSI 1104 [13, 18]: 2 µM
- MIC, AC46 [14, 18]: 2 µM
- MIC, AC44 [15, 18]: 1 µM
- MIC, ATCC 19606 [16, 18]: 4 µM
- MIC, AC2 [17, 18]: 2 µM

Molecule: H-(KFF)3K-eg1-ATGAGGCCATG-NH2 (all peptide nucleic acid (PNA), 5' {(KFF)3K-eg1}, 3' {NH2}) [PNA 5657, anti-ftsZ peptide-PNA conjugate, match, −1 to +10]
- MIC, AC44 [15, 21]: 16 µM
- MIC, ATCC 19606 ([16]; MHB without cation (Oxoid)): >16 µM

Molecule: H-(KFF)3K-eg1-GGCCATGACCT-NH2 (N-terminal (KFF)3K-eg1 peptide, C-terminal amide, backbone not given here, further chemistry not given here) [PNA 5658, anti-ftsZ peptide-PNA conjugate, match, −5 to +6]
- MIC, SSI 1104 [13, 21]: 8 µM
- MIC, AC44 [15, 21]: 8 µM
- MIC, ATCC 19606 ([16]; MHB without cation (Oxoid)): 4 µM

Molecule: H-(KFF)3K-eg1-GTTTCATGGGT-NH2 (all peptide nucleic acid (PNA), 5' {(KFF)3K-eg1}, 3' {NH2}) [PNA 5655, anti-rne peptide-PNA conjugate, match, −4 to +7]
- MIC, AC44 [15, 18]: 8 µM
- MIC, ATCC 19606 [16, 18]: 4 µM
- MIC, AC2 [17, 18]: 8 µM

Molecule: H-(R-Ahx-R)4-Ahx-GAGTCCAGGAC-NH2 (all peptide nucleic acid (PNA), 5' {(R-Ahx-R)4-Ahx}, 3' {NH2}) [PNA 5616, anti-ftsZ (R-Ahx-R)4-Ahx-PNA, mismatch]
- MIC, AC44 [15, 21]: >16 µM
- MIC, ATCC 19606 ([16]; MHB without cation (Oxoid)): >16 µM

Molecule: H-(kff)3k -eg1-TGACTTGTCAC-NH2 (all peptide nucleic acid (PNA), 5' {(kff)3k-eg1}, 3' {NH2}) [PNA 5824, anti-acpP PNA with D-form peptide, mismatch]
- MIC, SSI 1104 [13, 19]: 8 µM
- MIC, AC46 [14, 19]: 4 µM
- MIC, AC44 [15, 19]: 4 µM
- MIC, ATCC 19606 [16, 20]: 8 µM
- MIC, AC2 [17, 19]: 8 µM

Molecule: H-(kff)3k-eg1-TGATTTGCCAC-NH2 (all peptide nucleic acid (PNA), 5' {(kff)3k-eg1}, 3' {NH2}) [PNA 5823, anti-acpP PNA with D-form peptide, match]
- MIC, SSI 1104 [13, 19]: 4 µM
- MIC, AC46 [14, 19]: 4 µM
- MIC, AC44 [15, 19]: 4 µM
- MIC, ATCC 19606 [16, 20]: 4 µM
- MIC, AC2 [17, 19]: 4 µM
